Experimental data published in US20220073470A1, “INHIBITORS OF CGAS ACTIVITY AS THERAPEUTIC AGENTS” (BELLBROOK LABS, LLC, priority 2019, published 2022).
Read-outs that look alike come from different tables or passages of the source.

Target: T1, full-length human cGAS (Homo sapiens, UniProt Q8N884)
T1 construct: The cGAS assay was used to screen 100,000 compounds with full-length human cGAS; 6xHis; made in house
Test: cGAS enzymatic assay (FP readout), inhibition of cGAS
Format: biochemical
Protocol: Some exemplary compounds of the disclosure were tested for inhibition of cGAS (30 nM). The results are provided in Table 1 where “A” indicates an IC50 of less than 100 nM, “B” indicates an IC50 of greater than 100 nM and less than 500 nM, “C” indicates an IC50 of greater than 500 nM and less than 1 μM, “D” indicates an IC50 of greater than 1 μM and less than 10 μM, and “E” indicates an IC50 of greater than 10 μM.
A homogenous cGAS enzymatic assay was developed with fluorescence polarization (FP) and time-resolved Forster resonance energy transfer (TR-FRET) readouts (FIG. 2A-D). The cGAS assay was used to screen 100,000 compounds with full-length human cGAS (FIG. 2E), resulting in the identification of novel chemotypes, two of which are further developed in a structure-driven hit-to-lead study (Table 3, below). The assay performance was robust, as indicated by respective Z and Z′ values of 0.59 and 0.63 in the screen; compounds with polarization values greater than three SDs from the mean were considered hits; a scatterplot from 10 plates (3,200 compounds) is shown in FIG. 2D.
Potency and MOA studies, including Mn^2+ sensitivity, are performed using the cGAS enzymatic assay. Dose response experiments are used to determine IC50 values under basal conditions (5 mM MgCl2, 100 μM ATP/GTP), and with the addition of physiological levels of Mn (0.2 mM) using human and mouse cGAS. Ligand optimization is driven by potency with the human enzyme; potency with mouse cGAS informs selection of an appropriate disease model for efficacy studies. Competition with ATP and GTP is assessed by comparing basal IC50 values to those in the presence of saturating ATP or GTP, and subsequently confirmed by measuring velocity vs. substrate at varying ATP or GTP levels. Inhibitor residence times (1/koff) are used as a key parameter for prioritizing compounds and driving SAR, because a longer residence time often results from an allosteric mechanism, and can also correlate with improved cellular activity. The cGAS enzymatic assay is used with the jump dilution method to measure residence times (inhibitor dissociation rates), as described for kinases using the very similar ADP assay. Biophysical methods, including SPR and TSAn, are used as orthologous methods for residence time measurements and kd estimates.

[1] = cGAS (30 nM), no Mn2+, read-out: Inhibition cGAS (IC50 class)
[2] = cGAS (30 nM), with Mn2+, read-out: Inhibition cGAS + Mn^2+ (IC50 class)

T1 sequence (Q8N884 whole entry): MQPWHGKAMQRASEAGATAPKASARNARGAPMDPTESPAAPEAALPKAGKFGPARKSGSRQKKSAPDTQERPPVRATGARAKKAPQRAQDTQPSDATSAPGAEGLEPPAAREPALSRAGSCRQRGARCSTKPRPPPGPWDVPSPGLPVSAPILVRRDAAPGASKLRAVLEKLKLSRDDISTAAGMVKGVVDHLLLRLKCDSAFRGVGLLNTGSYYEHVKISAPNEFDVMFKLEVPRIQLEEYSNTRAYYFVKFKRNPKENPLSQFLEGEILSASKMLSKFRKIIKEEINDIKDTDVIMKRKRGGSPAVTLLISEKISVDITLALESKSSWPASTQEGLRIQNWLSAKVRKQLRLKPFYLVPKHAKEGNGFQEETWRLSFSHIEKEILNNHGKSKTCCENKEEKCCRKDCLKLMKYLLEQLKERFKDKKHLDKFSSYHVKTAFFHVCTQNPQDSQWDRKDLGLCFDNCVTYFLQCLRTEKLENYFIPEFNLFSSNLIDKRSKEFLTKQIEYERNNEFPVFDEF

| Compound | Effect of Mn^2+ on potency against cGAS (Mn2+ at physiological concentration (200 μM)) | IC50 [1] [µM] | IC50 [2] [µM] | IC50 (5 mM Mg2+, 0.2 mM Mn2+, read-out: IC50 (5 mM Mg^2+, 0.2 mM Mn^2+)) [µM] | IC50 (5 mM Mg2+, no Mn2+, read-out: IC50 (5 mM Mg^2+)) [µM] |
| --- | --- | --- | --- | --- | --- |
| CCN(CC)CCCC(C)Nc1c2ccc(Cl)cc2nc2ccc(OC)cc12 (stereo not drawn) [quinacrine, reference compound] | significantly less potent | – | – | – | – |
| COc1ccc2nccc(-n3ccnc3)c2c1 [Compound 3, 4-(1H-imidazol-1-yl)-6-methoxyquinoline] | – | > 10 | 1 to 10 | – | – |
| Cc1ccc(S(=O)(=O)Nc2ccc(C(=O)Nc3ccncc3)cc2)cc1 [Compound 24, 4-((4-methylphenyl)sulfonamido)-N-(pyridin-4-yl)benzamide] | – | > 10 | – | – | – |
| Fc1ccc2c(-n3ccnc3)ccnc2c1 [Compound 8, 7-fluoro-4-(1H-imidazol-1-yl)quinoline] | – | > 10 | > 10 | – | – |
| O=C(O)CNc1nc(-c2ccccc2)nc2ccccc12 [Compound 2, (2-phenylquinazolin-4-yl)glycine] | – | > 10 | > 10 | – | – |
| O=C(Nc1ccccc1C(=O)O)c1ccc(NC(=O)c2ccccc2Br)cc1 [Compound 28, 2-(4-(2-bromobenzamido)benzamido)benzoic acid] | – | > 10 | > 10 | – | – |
| COc1ccccc1CC(=O)Nc1cccc(C(=O)Nc2ccccc2C(=O)O)c1 [Compound 30, 2-(3-(2-(2-methoxyphenyl)acetamido)benzamido)benzoic acid] | – | > 10 | – | – | – |
| c1ccc(-c2ccc3nccc(-n4ccnc4)c3c2)cc1 [Compound 10, 4-(1H-imidazol-1-yl)-6-phenylquinoline] | – | – | 1 to 10 | – | – |
| COc1ccc2c(-n3ccnc3)ccnc2c1 [Compound 6, 4-(1H-imidazol-1-yl)-7-methoxyquinoline] | – | > 10 | 1 to 10 | – | – |
| O=C(Nc1ccc(C(=O)Nc2ccccc2C(=O)O)cc1)c1ccc(I)cc1 [Compound 27, 2-(4-(4-iodobenzamido)benzamido)benzoic acid] | – | > 10 | > 10 | – | – |

The remaining lines, values ahead:

| Effect of Mn^2+ on potency against cGAS (Mn2+ at physiological concentration (200 μM)) | IC50 [1] [µM] | IC50 [2] [µM] | IC50 (5 mM Mg2+, 0.2 mM Mn2+, read-out: IC50 (5 mM Mg^2+, 0.2 mM Mn^2+)) [µM] | IC50 (5 mM Mg2+, no Mn2+, read-out: IC50 (5 mM Mg^2+)) [µM] | Compound |
| --- | --- | --- | --- | --- | --- |
| – | > 10 | > 10 | – | – | O=C(Cc1ccccc1)Nc1ccc(C(=O)Nc2ccccc2C(=O)O)cc1 [Compound 25, 2-(4-(2-phenylacetamido)benzamido)benzoic acid] |
| – | > 10 | > 10 | – | – | O=C(O)[C@@H](Cc1ccccc1)Nc1ncnc2c1CCCC2 [Compound 32, (5,6,7,8-tetrahydroquinazolin-4-yl)-D-phenylalanine] |
| – | 0.1 to 0.5 | < 0.1 | – | – | COc1cc2c(-n3ccnc3)ccnc2cc1Br [Compound 22, 7-bromo-4-(1H-imidazol-1-yl)-6-methoxyquinoline] |
| – | 0.5 to 1 | – | – | – | Nc1cc(-n2ccnc2)c2ccc(Cl)cc2n1 [Compound 19, 7-chloro-4-(1H-imidazol-1-yl)quinolin-2-amine] |
| – | 1 to 10 | 0.5 to 1 | – | – | Cc1cc2c(-n3ccnc3)ccnc2cc1Cl [Compound 16, 7-chloro-4-(1H-imidazol-1-yl)-6-methylquinoline] |
| – | 1 to 10 | 0.1 to 0.5 | 0.79 | 5.4 | Clc1ccc2c(-n3ccnc3)ccnc2c1 [Compound 1, 7-chloro-4-(1H-imidazol-1-yl)quinolone] |
| – | > 10 | > 10 | – | – | O=C(Cc1ccccc1)Nc1ccc(C(=O)Nc2ccc(C(=O)O)cc2)cc1 [Compound 26, 4-(4-(2-phenylacetamido)benzamido)benzoic acid] |
| – | > 10 | 1 to 10 | – | – | Brc1ccc2nccc(-n3ccnc3)c2c1 [Compound 7, 6-bromo-4-(1H-imidazol-1-yl)quinoline] |
| – | 1 to 10 | 0.1 to 0.5 | – | – | Clc1ccc2c(-n3ccnc3)cc(-c3ccccc3)nc2c1 [Compound 12, 7-chloro-4-(1H-imidazol-1-yl)-2-phenylquinoline] |
| – | 1 to 10 | 0.1 to 0.5 | – | – | Brc1ccc2c(-n3ccnc3)ccnc2c1 [Compound 4, 7-bromo-4-(1H-imidazol-1-yl)quinoline] |
| – | 0.5 to 1 | 0.1 to 0.5 | – | – | Clc1ccc2c(-n3ccnc3)c(-c3ccccc3)cnc2c1 [Compound 13, 7-chloro-4-(1H-imidazol-1-yl)-3-phenylquinoline] |
